Drawing on BindingDB's records for doi:10.1021/jm5006226 (Bristol Myers Squibb, 2014), this text covers IC50 for 33 compounds.

The structures appear in SMILES notation.

For orientation: IC50 means the midpoint of a concentration-inhibition curve.

A short description of this assay: Antagonist activity at P2Y1 receptor in platelet-enriched human plasma assessed as 10 uM ADP-induced platelet aggregation preincubated for 1 min followed by ADP induction measured at 5 mins by aggregometric analysis.
`CC(C)(C)CN1CCC2(CC1)CN(c1ccccc1NC(=O)Nc1nc3ccc(Cl)nc3s1)c1c(O)ccc(Cl)c12`: the IC50 amounted to 130 nM.
Then `CC(C)(C)CN1CCC2(CC1)CN(c1ccccc1NC(=O)Nc1nc3ccc(Cl)nc3s1)c1c(O)cc(F)c(-c3ccc(F)cc3)c12`, with 180 nM; and `CC1(C)CN(c2ccccc2NC(=O)Nc2ccc(OC(F)(F)F)cc2)c2c(O)cc(F)c(-c3ccc(Cl)cc3)c21`, with 240 nM.
Turning to `CC1(C)CN(c2ccccc2NC(=O)Nc2ccc(OC(F)(F)F)cc2)c2c(O)cc(F)c(-c3ccc(Cl)s3)c21`, the IC50 came out at 130 nM.
Consider `CC1(C)CN(c2ccccc2NC(=O)Nc2ccc(OC(F)(F)F)cc2)c2c(O)cc(F)c(-c3ccc(C(F)(F)F)cn3)c21`, for which the IC50 is 110 nM.
For the compound `CC1(C)CN(c2ccccc2NC(=O)Nc2ccc(OC(F)(F)F)cc2)c2c(O)cc(F)c(-c3ccc(C(F)(F)F)nc3)c21`, the IC50 was 150 nM.
On to `CC1(C)CN(c2ccccc2NC(=O)Nc2ccc(OC(F)(F)F)cc2)c2c(O)cc(F)c(-c3cc(F)nc(F)c3)c21`, for which the IC50 was 160 nM.
On to `CC1(C)CN(c2ccccc2NC(=O)Nc2ccc(OC(F)(F)F)cc2)c2c(O)cc(F)c(-c3ncc(F)cn3)c21`, for which the IC50 turned out to be 950 nM.
Then `CC(C)(C)CN1CCC2(CC1)CN(c1ccccc1NC(=O)Nc1ccc(OC(F)(F)F)cc1)c1c(O)cc(F)c(-c3ccc(Cl)cc3)c12`, with 200 nM.
Then `CC(C)(C)CN1CCC2(CC1)CN(c1ccccc1NC(=O)Nc1ccc(OC(F)(F)F)cc1)c1c(O)cc(F)c(-c3ccc(F)cc3)c12`, with 140 nM.
For the compound `CC1(C)CN(c2ccccc2NC(=O)Nc2nc3ccc(Cl)nc3s2)c2c(O)ccc(Cl)c21`, the IC50 came to 1400 nM.
The value for `CC1(C)CN(c2ccccc2NC(=O)Nc2ccc(OC(F)(F)F)cc2)c2c(O)ccc(Cl)c21` was 870 nM; that for `CC1(CC(F)(F)F)CN(c2ccccc2NC(=O)Nc2ccc(OC(F)(F)F)cc2)c2c(O)ccc(Cl)c21` (stereo not drawn) was 2900 nM.
Then `CCOC(=O)C1(C)CN(c2ccccc2NC(=O)Nc2ccc(OC(F)(F)F)cc2)c2c(O)ccc(Cl)c21` (stereo not drawn), with 3100 nM; and `CCOC(=O)C1(C)CN(c2ccccc2NC(=O)Nc2nc3ccc(Cl)nc3s2)c2c(O)ccc(Cl)c21` (stereo not drawn), with 610 nM.
Then `CC1(C)CN(c2ccccc2NC(=O)Nc2ccc(OC(F)(F)F)cc2)c2c(O)ccc(-c3ccccc3)c21`, with 180 nM.
`CC1(C)CN(c2ccccc2NC(=O)Nc2ccc(OC(F)(F)F)cc2)c2c(O)ccc(-c3ccccc3F)c21`: the IC50 worked out at 80 nM.
Then `CC1(C)CN(c2ccccc2NC(=O)Nc2ccc(OC(F)(F)F)cc2)c2c(O)ccc(-c3cccc(F)c3)c21`, with 240 nM; and `CC1(C)CN(c2ccccc2NC(=O)Nc2ccc(OC(F)(F)F)cc2)c2c(O)ccc(-c3ccc(F)cc3)c21`, with 160 nM; and `CC1(C)CN(c2ccccc2NC(=O)Nc2ccc(OC(F)(F)F)cc2)c2c(O)ccc(-c3ccc(Cl)cc3)c21`, with 210 nM.
Then `CC1(C)CN(c2ccccc2NC(=O)Nc2ccc(OC(F)(F)F)cc2)c2c(O)ccc(-c3ccc(C(F)(F)F)cc3)c21`, with 230 nM; and `CC1(C)CN(c2ccccc2NC(=O)Nc2ccc(OC(F)(F)F)cc2)c2c(O)ccc(-c3ccc(F)cc3F)c21`, with 160 nM.
For `CC1(C)CN(c2ccccc2NC(=O)Nc2ccc(OC(F)(F)F)cc2)c2c(O)ccc(-c3ccc(F)c(F)c3)c21`, the IC50 is 400 nM.
Then `CC1(C)CN(c2ccccc2NC(=O)Nc2ccc(OC(F)(F)F)cc2)c2c(O)ccc(-c3cc(F)cc(F)c3)c21`, with 180 nM; and `CC1(C)CN(c2ccccc2NC(=O)Nc2nc3ccc(Cl)nc3s2)c2c(O)ccc(-c3ccc(F)cc3)c21`, with 230 nM; and `CC1(C)CN(c2ccccc2NC(=O)Nc2csc(Cl)n2)c2c(O)ccc(-c3ccc(F)cc3)c21`, with 90 nM.
The value for `Cc1nc(NC(=O)Nc2ccccc2N2CC(C)(C)c3c(-c4ccc(F)cc4)ccc(O)c32)cs1` was 430 nM; that for `CC(C)CN1CCCC1c1ccc(NC(=O)Nc2ccccc2N2CC(C)(C)c3c(-c4ccc(F)cc4)ccc(O)c32)cc1` (stereo not drawn) was 50 nM; that for `CC(C)(C)CN1CCCC1c1ccc(NC(=O)Nc2ccccc2N2CC(C)(C)c3c(-c4ccc(F)cc4)ccc(O)c32)cc1` (stereo not drawn) was 90 nM.
The value for `CC1(C)CN(c2ccccc2NC(=O)Nc2ccc(OC(F)(F)F)cc2)c2c(O)cc(F)c(-c3ccc(F)cc3)c21` was 190 nM; that for `CC1(C)CN(c2ccccc2NC(=O)Nc2ccc(OC(F)(F)F)cc2)c2c(O)c(F)cc(-c3ccc(F)cc3)c21` was 390 nM.
For the compound `CC1(C)CN(c2ccccc2NC(=O)Nc2ccc(OC(F)(F)F)cc2)c2c(O)c(F)cc(-c3ccc(Cl)cc3)c21`, the IC50 is 300 nM.
Then `CC1(C)CN(c2ccccc2NC(=O)Nc2ccc(OC(F)(F)F)cc2)c2c(O)cc(F)c(-c3cnc(Cl)cn3)c21`, with 260 nM.
